Values after ≈ are worked out from the molar mass of the structure shown. Where two headings read alike, the source gives them in different places.
Key:
mESC-D3 [1] = assay: Automated mESC-D3 differentiation assay in 96-well round-bottom ultra-low attachment plates (cardiomyocyte contraction, day 10); assay type: cell-based, mouse; conditions: beating cardiomyocytes at day 10, in brackets the two independent runs
Description: The mESC-D3 differentiation assay was automated in 96-well round-bottom ultra-low attachment plates (Costar, Cat. No. 7007) on the lab automation platform Fluent (Tecan). The method was set up for testing up to three different compounds in an automated procedure, resulting in maximal 9 plates that were being processed. A 7-point dilution series of test compounds and control solutions were prepared in PBS or DMSO under the laminar flow, transferred to a 96-well 0.5 ml Masterblock plate, and placed on the Fluent worktable. There the compounds were further diluted in growth media in a 96-well 2 ml Masterblock plate using the FCA. Of the compound solution, 10 μl/well were dispensed into a 96-well round well ultra-low attachment plate. In the meantime, a suspension of mESC-D3 (3.75 × 10^4 cells/ ml) was prepared in growth media and was placed in a trough on the worktable. The cell suspension was transferred into the 96-well round-bottom ultra-low attachment plate (40 μl/well) using the FCA. After 2 days of incubation at 37 °C, 5% CO2, and 95% humidity fresh compound and control solutions were prepared and added to the 96-well U-bottom plate (200 μl/well). On day five of the assay freshly prepared compound and control solutions were dispensed into a 96-well imaging plate (200 μl/well, Greiner bio-one, Cat. No. 655866). Using the MCA, the supernatant was aspirated from the 96-well round-bottom ultra-low attachment plate, the EB at the bottom of the well was aspirated and transferred into the prefilled imaging plate. On day 7, the cell supernatant was partially replaced with a fresh compound solution. Therefore, the media was aspirated using the MCA and the fresh compound solution was dispensed with the FCA. After further 3 days of incubation (= day 10 of the assay) cardiomyocyte contraction was determined in each well under the light microscope. Afterward, cells were stained and analyzed using the Opera High Content Screening System (PerkinElmer).
Toxicity data from the MTT and CellTiter-Glo Assay was normalized against the vehicle control (100% viability) and plotted against the logarithmic compound concentration.

mESC-D3 [2] = assay: Conventional mouse ES-D3 differentiation assay in hanging drop format (petri dish; cardiomyocyte contraction, day 10); assay type: cell-based; conditions: manual; beating cardiomyocytes at day 10; in brackets the two individual experiments
Description: Separate Petri dishes were used for each concentration of test compound, untreated control, and solvent control. […] The EB suspension was incubated for 2 days. On day five of the assay, a fresh compound dilution series was prepared in media and transferred into 24-well cell culture plates (1 ml/well, Greiner bio-one, Cat. No. 662641). A separate 24-well plate was used for each compound concentration, untreated control, and solvent control (24 wells per condition). One EB was transferred from the Petri dish into each well of the 24-well plate. After further 5 days of incubation (= day 10 of the assay), cardiomyocyte contraction was determined in each well under the light microscope.

mESC-D3 [3] = assay type: cell-based, mouse; conditions: for ID50 FACS (MHC-positive cells): flow cytometry, day 7
Description: As an alternative to the morphological analysis at day 10, differentiation can be analyzed at day 7 of the assay by flow cytometry using the molecular flow EST (Buesen et al. [2009]). Previously, staining of cardiomyocytes was performed using an unconjugated primary monoclonal antibody directed against the sarcomeric MHC (clone MF20), followed by binding of a secondary biotin-conjugated goat anti-mouse IgG antibody which is then detected with the fluorochrome PE-SA (phycoerythrin-conjugated streptavidin) (Seiler and Spielmann [2011]). […] Of note, these experiments were performed in parallel with the same batch of spontaneously differentiated mESCs.
Embryoid bodies were formed in hanging drops (Petri dish) as already described. On day 5 of the assay, the EBs were transferred into a larger Petri dish and incubated for two more days at 37 °C, 5% CO2, and 95% humidity. Afterward, the EBs were dissociated using the Embryoid Body Dissociation Kit (Miltenyi Biotec, Cat. No. 130-096-348). EBs from two Petri dishes were harvested in one 15 ml tube and washed once with 10 ml PBS. The supernatant was discarded after centrifugation and a pre-warmed enzyme mix was added. The EB/enzyme mix was incubated for 10 min at 37 °C, dissociated for 1 min with a 1000 μl pipette, incubated for 5 min and mechanically dissociated again for 1 min. After the addition of 3 ml PBS, the cell suspension was passed through a 70-μm filter into a new 15-ml tube. The filter was then washed with 3 ml PBS and discarded afterward. The cell suspension was centrifuged for 5 min at 300 rpm. The supernatant was discarded afterward, cells were suspended in PBS and counted. For viability staining, 10^6 cells were suspended in 100 μl staining reagent (LIVE/DEAD™ Fixable Green Dead Stain Kit, Life Technologies, Cat. No. L34969), incubated for 30 min at 4 °C and washed with 1 ml PBS. For fixation, cells were suspended in 100 μl fixation buffer (BioLegend, Cat. No. 420801) and incubated 20 min at room temperature. For the intracellular staining, cells were washed twice with 1 ml permeabilization buffer (BioLegend, Cat. No. 421002) and suspended in 50 μl permeabilization buffer supplemented with 50 μl of pre-diluted (1:5) antibody (mouse IgG2B anti-human Myosin Heavy Chain APC-conjugated, mouse IgG2B APC-conjugated isotype control, R&D Systems, Cat. No. IC4470A). After 1 h incubation at room temperature cells were washed twice with 1 ml permeabilization buffer and suspended in FACS buffer. Within 2–3 h samples were measured on an LSR II flow cytometer (Beckton Dickinson). Data analysis was done using FlowJo software (Version 10.0.8; Tree Star).

[4] = tested on: mESC-D3 and NIH/3T3 cells; conditions: for Compound classification (Seiler and Spielmann [2011]): automated mouse EST assay; for Compound classification: manual murine EST assay, prediction model of Seiler and Spielmann 2011
mESC-D3 [5] = tested on: mESC-D3; parameters: method as in Scholz et al. [1999]; conditions: ZEBET value, 7 d result; ref Scholz et al. [1999]; cited from earlier work
NIH/3T3 = tested on: NIH/3T3; parameters: method as in Scholz et al. [1999]; conditions: ZEBET value, 7 d result; ref Scholz et al. [1999]; cited from earlier work
mESC-D3 [6] = tested on: mESC-D3; parameters: method as in Scholz et al. [1999]; conditions: ZEBET value printed beside hanging drop differentiation result; ref Scholz et al. [1999]; cited from earlier work

## O=C1NS(=O)(=O)c2ccccc21 [Saccharin, saccharin]
mESC-D3 [1]
  Differentiation assay in round bottom ULA microplate ID50 mESC-D3: > 1000 (> 1000; > 1000) μg/ml
mESC-D3 [1]; listed as saccharin
  Differentiation assay in round bottom ULA microplate ID50 mESC-D3: > 1000 µg/mL
mESC-D3 [2]
  Differentiation assay in hanging drop (petri dish) ID50 mESC-D3: 1000 (> 1000; > 1000) µg/ml
mESC-D3 [3]
  ID50 FACS (MHC-positive cells): > 1000 µg/mL
mESC-D3 [3]; treated with 1000 μg/ml, untreated 25%
  MHC-positive cells: 19%
[4]
  Compound classification (Seiler and Spielmann [2011]): No embryotoxicity
  Compound classification: no embryotoxicity
mESC-D3 [5]
  IC50 mESC-D3 (ZEBET): 3498 µg/mL (≈ 19100 µM)
NIH/3T3
  IC50 NIH/3T3 (ZEBET): 3000 µg/mL (≈ 16400 µM)
mESC-D3 [6]
  ID50 mESC-D3 (ZEBET): 2000 µg/mL (≈ 10900 µM)

## NC(=O)NO [Hydroxyurea, hydroxyurea]
mESC-D3 [1]
  Differentiation assay in round bottom ULA microplate ID50 mESC-D3: 2.69 (2.86; 2.52) μg/ml
mESC-D3 [1]; listed as hydroxyurea
  Differentiation assay in round bottom ULA microplate ID50 mESC-D3: 2.69 µg/mL
mESC-D3 [2]
  Differentiation assay in hanging drop (petri dish) ID50 mESC-D3: 2.55 (2.56; 2.54) µg/ml
mESC-D3 [3]
  ID50 FACS (MHC-positive cells): 5.65 µg/mL (≈ 74.3 µM)
mESC-D3 [3]; treated with 10 μg/ml, untreated 31% (hydroxyurea), 26% (fumonisine B1)
  MHC-positive cells: 4%
[4]
  Compound classification (Seiler and Spielmann [2011]): Strong embryotoxicity
  Compound classification: strong embryotoxicity
mESC-D3 [5]
  IC50 mESC-D3 (ZEBET): 2.0 µg/mL (≈ 26.3 µM)
NIH/3T3
  IC50 NIH/3T3 (ZEBET): 7.2 µg/mL (≈ 94.7 µM)
mESC-D3 [6]
  ID50 mESC-D3 (ZEBET): 1.7 µg/mL (≈ 22.4 µM)

Source: publication PMC8012336, “An automated and high-throughput-screening compatible pluripotent stem cell-based test platform for developmental and reproductive toxicity assessment of small molecule compounds” (Cell Biology and Toxicology, 2020)
